d = 2'-deoxy (DNA)
Legend:
Format in all cases: cell-based, human
HCT116 p53+/+ cells = experiment: Apoptosis (annexin-V staining, phase contrast); conditions: 24 h drug exposure
Protocol: (§1) Phase contrast digital images were captured using an Axiovert 200M microscope (Zeiss). Apoptotic cells were identified by flow cytometry using annexin-V-Fluos (Roche) following the manufacturer's protocol.
(§2) Cells for transfection and/or drug treatment were plated at a density of 6×10^4 (ARPE-19) or 1.4×10^5 (HCT116) per well in 6-well plates. For the experiment in FIG. 3a, ARPE-19 cells were plated at a density of 4×10^4 per well. Transfections were performed 24 hours post-plating in Opti-MEM (Gibco) using Oligofectamine (Invitrogen) according to the manufacturer's instructions. Chemically synthesized, HPLC-purified siRNAs were obtained from Qiagen or Dharmacon. SIRT1 siRNA sequence has been described^27. JNK1 siRNA sequences were: Sense 5′-CUCCACCACCAAAGAUCCC(dTdT)-3′, antisense 5′-GGGAUCUUUGGUGGUGGAG(dTdT)-3′. JNK2 siRNA sequences were: Sense 5′-GAGCUGGUGAAAGGUUGUG(dTdT)-3′, antisense 5′-CACAACCUUU CACCAGCUC(dTdT)-3′. Specificities of SIRT1 siRNA, JNK1 sIRNA and JNK2 siRNA have been validated previously¢ (Ahmed and Milner, in submission). Cells were harvested for analysis 48 h post-transfection, except where indicated otherwise. For drug treatment, drugs were applied by complete media replacement 48 h post-plating at final concentration 375 μM (5-FU) or 425 μM (uridine). […]

SIRT1 = experiment: Immunoblotting of total SIRT1, SIRT1 S27P and SIRT1 S47P
Protocol: (§3) Epithelial cancer cell lines RKO, LoVo, DLD-1, HT29, U2OS, SAOS-2, MCF7, HTB-126, HT-1080 and SiHa were obtained from ATCC. Isogenic colorectal carcinoma cell lines HCT116 p53+/+ and HCT116 p53−/− were a kind gift of Bert Vogelstein. Non-cancer cells were normal diploid fibroblasts (NDF) and ARPE-19 immortalised retinal epithelial cells (ATCC), and normal human embryonic keratinocytes (NHEK, Invitrogen). Cells were cultured according to the supplier's protocols. siRNA sequences, transfection protocols and target validations were as described (Ref. 27 and Methods). For drug treatments, cells were treated 48 hours post-plating with final concentration of 5-FU (375 OM) and uridine (425 OM) as indicated and harvested 24 h later. For combined transfection/drug treatment, drugs were applied 24 h post-transfection and cells harvested 24 h later. For time course analyses cells were harvested at indicated time points post-treatment.
(§4) Cells were prepared as described (Methods). For immunoblotting equivalent numbers of cells, or equivalent amounts of protein, were loaded in each lane. Antibodies were: Anti-SIRT1 (H-300, Santa Cruz), anti-phosphoserine27-SIRT1 (#2327, Cell Signaling), anti-phosphoserine47-SIRT1 (#2314, Cell Signaling), anti-actin (MAB1501, Chemicon), anti-p53 (00-1, Santa Cruz), anti-acetylated-p53-lysine382 (#2525, Cell Signaling), anti-JNK1 (F-3, Santa Cruz), anti-JNK2 (#4672, Cell Signaling). Visualisation of bound antibodies was by ECL, with quantitation by densitometry of signals within the linear range.
(§5) Cells for transfection and/or drug treatment were plated at a density of 6×10^4 (ARPE-19) or 1.4×10^5 (HCT116) per well in 6-well plates. For the experiment in FIG. 3a, ARPE-19 cells were plated at a density of 4×10^4 per well. Transfections were performed 24 hours post-plating in Opti-MEM (Gibco) using Oligofectamine (Invitrogen) according to the manufacturer's instructions. Chemically synthesized, HPLC-purified siRNAs were obtained from Qiagen or Dharmacon. SIRT1 siRNA sequence has been described^27. JNK1 siRNA sequences were: Sense 5′-CUCCACCACCAAAGAUCCC(dTdT)-3′, antisense 5′-GGGAUCUUUGGUGGUGGAG(dTdT)-3′. JNK2 siRNA sequences were: Sense 5′-GAGCUGGUGAAAGGUUGUG(dTdT)-3′, antisense 5′-CACAACCUUU CACCAGCUC(dTdT)-3′. Specificities of SIRT1 siRNA, JNK1 sIRNA and JNK2 siRNA have been validated previously¢ (Ahmed and Milner, in submission). Cells were harvested for analysis 48 h post-transfection, except where indicated otherwise. For drug treatment, drugs were applied by complete media replacement 48 h post-plating at final concentration 375 μM (5-FU) or 425 μM (uridine). Cells were harvested for analysis 24h following application of drugs, or at the indicated timepoints for time-course analysis. For combined transfection/drug experiments, drugs were applied approximately […] post-transfection. Cells from combined transfection/drug experiments were harvested for analysis after 24 hours of drug exposure (˜48 hours post-transfection).
For preparation of total protein lysates, cell counts or protein assay was performed, with the method chosen consistent within each experiment. Cells were lysed in lysis buffer IPAMN (10 mM TRIS base pH 8.0, 140 mM NaCl, 2 mM CaCl2, 0.5% NP-40, 5 U ml^−1 micrococcal nuclease) for 3 minutes at room temperature followed by addition of 0.25× volumes of 6×SDS-PAGE sample buffer and brief heating to 90° C. Samples for protein assay were withdrawn before addition of 6×SDS-PAGE sample buffer, and assayed using BCA Protein Assay Kit (Pierce) according to the manufacturers instructions. Equivalent numbers of cells, or equivalent amounts of protein, were electrophoresed on 10% or 15% SDS-PAGE, electrobiotted to Protran membrane (Schleicher&Schuell) using a wet-blot transfer system, blocked for 1 hour at room temperature and probed with primary antibodies overnight at 4° C. […]

SIRT1 mRNA = experiment: Quantitative RT-PCR of SIRT1 mRNA; conditions: for SIRT1 mRNA estimated t1/2: following administration of 5-FU
Protocol: as §3
Cellular mRNAs were extracted for quantitative RT-PCR as previously described^27. Primers and thermal cycling conditions were as described^27 (Methods); quantifications were performed in triplicate.
as §5
Relative mRNA levels were quantitated by realtime RT-PCR. […] SIRT1 primers 5′-[…]-3′ and 5′-[…]-3′ were used in the thermal cycle: 50° C. for 30 minutes, 94° C. for 15 minutes, followed by 35 cycles of 94° C. for 30 seconds, 55° C. for 30 seconds, 72° C. for 30 seconds, then 75° C. for 15 seconds before the plate was read. JNK1 primers 5′-[…]-3′ and 5′-[…]-3′ were used in the thermal cycle: 50° C. for 30 minutes, 94° C. for 15 minutes, followed by 35 cycles of 94° C. for 30 seconds, 57° C. for 30 seconds, 72° C. for 30 seconds, then 75° C. for 15 seconds before the plate was read. JNK2 primers 5′-[…]-3′ and 5′-[…]-3′ were used in the thermal cycle: 50° C. for 30 minutes, 94° C. for 15 minutes, followed by 35 cycles of 94° C. for 30 seconds, 55° C. for 30 seconds, 72° C. for 30 seconds, then 75° C. for 15 seconds before the plate was read. All RT-PCR quantifications were performed in triplicate.

laminA/C and GAPDH mRNAs = experiment: Quantitative RT-PCR of laminA/C and GAPDH mRNAs; conditions: 5-FU for 24 h
Protocol: Epithelial cancer cell lines RKO, LoVo, DLD-1, HT29, U2OS, SAOS-2, MCF7, HTB-126, HT-1080 and SiHa were obtained from ATCC. Isogenic colorectal carcinoma cell lines HCT116 p53+/+ and HCT116 p53−/− were a kind gift of Bert Vogelstein. Non-cancer cells were normal diploid fibroblasts (NDF) and ARPE-19 immortalised retinal epithelial cells (ATCC), and normal human embryonic keratinocytes (NHEK, Invitrogen). Cells were cultured according to the supplier's protocols. siRNA sequences, transfection protocols and target validations were as described (Ref. 27 and Methods). […]
Cellular mRNAs were extracted for quantitative RT-PCR as previously described^27. Primers and thermal cycling conditions were as described^27 (Methods); quantifications were performed in triplicate. […]
Relative mRNA levels were quantitated by realtime RT-PCR. […] SIRT1 primers 5′-[…]-3′ and 5′-[…]-3′ were used in the thermal cycle: 50° C. for 30 minutes, 94° C. for 15 minutes, followed by 35 cycles of 94° C. for 30 seconds, 55° C. for 30 seconds, 72° C. for 30 seconds, then 75° C. for 15 seconds before the plate was read. JNK1 primers 5′-[…]-3′ and 5′-[…]-3′ were used in the thermal cycle: 50° C. for 30 minutes, 94° C. for 15 minutes, followed by 35 cycles of 94° C. for 30 seconds, 57° C. for 30 seconds, 72° C. for 30 seconds, then 75° C. for 15 seconds before the plate was read. […]

ARPE-19 cells = experiment: Cell viability / apoptosis (annexin-V staining, phase contrast); conditions: 24 h drug exposure
Protocol: as §1, §2

p53 = experiment: Immunoblotting of p53 and p53 K382Ac
Protocol: as §3, §4
as §2, with “(uridine). Cells were harvested for analysis 24h following application of drugs, or at the indicated timepoints for time-course analysis.” for “(uridine).”

exogenous SIRT1 protein = experiment: Exogenous SIRT1 expression after RNAi and cycloheximide time course, immunoblotting
Excerpt: FIG. 13 JNK-dependent phosphorylation at S27 stabilises exogenous SIRT1 protein. a. Schematic of experimental protocol for RNA′ followed by transfection with exogenous SIRT1 expression vector (see text). b. Exogenous expression of SIRT1 in intact HCT116 cells (lane 2), JNK2-depleted cells (lane 3) and JNK1-depleted cells (lane 4) detected by immunoblotting. Lane 1 =intact, non-transfected cells. Note that in both intact cells and JNK1-depleted cells the exogenous SIRT1 is phosphorylated on S27 and S47, whereas in JNK2-depleted cells S27P levels reflect endogenous SIRT1 (lanes 1 and 3, asterix), c, d. Time course analyses of SIRT1 protein levels and SIRT1 S27P following addition of cycloheximide in intact (panel c) and JNK2-depleted (panel d) HCT116 cells as indicated. e. SIRT1 protein levels at indicated times post treatment with cycloheximide (CHX) in intact cells (solid circles, solid line) and in JNK-depleted cells (open circles, dashed line).
To further explore the relationship between SIRT1 and JNK2 we expressed exogenous . SIRT1 in HCT116 p53+/+ cells in which JNK2 had been depleted by RNAI (Methods and FIG. 13a). When expressed in intact cells exogenous SIRT1 protein was phosphorylated at both S27 and S47 (FIG. 13b, lane 2). […] In addition total exogenous SIRT1 protein levels were reduced in JNK2-depleted cells (FIG. 13b, lane 3 cp. lane 2, SIRT1), consistent with reduced SIRT1 protein stability in the absence of S27 phosphorylation. […] S47 kinase/phosphatase activity. […] Thus JNK2, but not JNK1, is required for S27 phosphorylation and associated accumulation of SIRT1 protein.
Reduced accumulation of SIRT1 protein under these conditions is consistent with the premise that JNK2-dependent phosphorylation of SIRT1 at S27P stabilises the SIRT1 protein. This was confirmed by time course studies in which exogenous SIRT1 protein levels were monitored following inhibition of protein synthesis by cycloheximide. […] In intact cells exogenous SIRT1 protein was phosphorylated at S27 (FIG. 13c) and was also stable over 9 hr (FIGS. 13c and 13e). However, in JNK2-depleted cells exogenous SIRT1 protein lacked S27P (FIG. 13d) and protein levels declined with a half life of approximately 2 hrs (FIGS. 13d and 13e). We conclude that JNK2 is required, directly or indirectly, for phosphorylation of SIRT1 at S27 and that this is linked with stabilisation of SIRT1 protein in HCT116 cancer cells.

## O=c1[nH]cc(F)c(=O)[nH]1 [5-FU, 5-fluorouracil]
HCT116 p53+/+ cells
  apoptosis: apoptosis
SIRT1; ARPE-19 cells
  total SIRT1 protein levels: increased 6 h after 5-FU treatment and subsequently declined by 24 h
SIRT1; HCT116 p53+/+ cells
  SIRT1 S27 phosphorylation: lost
  total SIRT1 protein levels: stable over 12 h, but declined by 24 h post-treatment
SIRT1; HCT116 p53−/− cells
  SIRT1 S27 phosphorylation: retained
  total SIRT1 protein levels: remains constant up to at least 48 h
SIRT1 mRNA; 5-FU (375 μM) for 24 h, ARPE-19 and HCT116 cells (FIG. 2a)
  depletion of SIRT1 mRNA: 80%
SIRT1 mRNA; ARPE-19 cells
  SIRT1 mRNA estimated t1/2: ~4 h
SIRT1 mRNA; HCT116 cells
  SIRT1 mRNA estimated t1/2: < 2 h
laminA/C and GAPDH mRNAs
  lamin A/C and GAPDH mRNA levels: relatively unaffected
ARPE-19 cells
  cell viability: remained viable
p53; ARPE-19 cells
  acetylation of p53: undetectable
  p53 response: attenuated
p53; HCT116 p53+/+ cells
  p53 K382 acetylation: induction
  p53 response: sustained

## JNK1 siRNA: siRNA: sense 5′-CUCCACCACCAAAGAUCCC(dTdT)-3′, antisense 5′-GGGAUCUUUGGUGGUGGAG(dTdT)-3′ (RNA, 3' dTdT, backbone not given here)
Exogenous SIRT1 protein; HCT116 p53+/+ cells
  exogenous expression of SIRT1 and its phosphorylation: indistinguishable from the intact controls
SIRT1; ARPE-19, HCT116 p53+/+ or HCT116 p53−/− cells
  SIRT1 protein levels, S27 or S47 phosphorylation: no effect
SIRT1; ARPE-19 cells
  total SIRT1 protein levels: no effect

## JNK2 siRNA: siRNA: sense 5′-GAGCUGGUGAAAGGUUGUG(dTdT)-3′, antisense 5′-CACAACCUUU CACCAGCUC(dTdT)-3′ (antisense CACAACCUUUCACCAGCUC; RNA, 3' dTdT, backbone not given here)
Exogenous SIRT1 protein; HCT116 cells, following addition of cycloheximide
  half life of exogenous SIRT1 protein: approximately 2 hrs
Exogenous SIRT1 protein; HCT116 p53+/+ cells
  S27 phosphorylation of exogenous SIRT1 protein: non-phosphorylated at S27
  exogenous SIRT1 S47P: clearly detectable
  total exogenous SIRT1 protein levels: reduced
SIRT1; ARPE-19 cells
  total SIRT1 protein levels: reduced levels of SIRT1 protein
SIRT1; HCT116 p53+/+ cells
  SIRT1 S27 phosphorylation: loss of SIRT1 S27P
  SIRT1 S47P: barely detectable
  total SIRT1 protein levels: reduced SIRT1 protein levels
SIRT1; HCT116 p53−/− cells
  SIRT1 protein levels or phosphorylation status: little effect
SIRT1 mRNA; ARPE-19 cells, 24-96 h post-transfection
  SIRT1 mRNA levels: remained constant
SIRT1 mRNA; HCT116 p53+/+ cells
  SIRT1 mRNA levels: absence of any reduction

From US20110060028A1, “COMBINATION THERAPY” (UNIVERSITY OF YORK, priority 2007, published 2011)
